The values that follow come from patent US20100143477A1, “Methods and Compositions for Stimulating the Proliferation or Differentiation of Stem Cells with Substance Por an Analog Thereof” (Immuneregen Biosciences, Inc., priority 2007, published 2010).

The test system of data set [1] is human bone marrow-derived hematopoietic cell populations. Description: CFC and iATP assays, all 7 cell populations (Example 3). Type of data set: cell-based. The following applies: most of populations; 14 days; up to 1 nM. As for the experimental part: The compound was dissolved in 1 ml of Iscove's Modified Dulbecco's Medium (IMDM) and a serial dose response prepared in single log doses so that the final dose in culture ranged from 1 nM to 1×10^−16 M. All working dilutions were performed in IMDM.
Starting with human bone marrow aspirate, the mononuclear cell (MNC) fraction was separated from the whole bone marrow using Ficoll-Paque density gradient centrifugation. […] The cell concentration was adjusted so that the final cell concentration in culture was 10,000 cells/well.
Human bone marrow MNC was dissolved in IMDM and cultured at a concentration of 10,000 cell/well in a CAMEO™-96 Master Mix (HemoGenix, Inc., Colorado Springs, Colo.). […]
Prior to processing all 96-well plates, the total colony counts/well were manually enumerated by microscopy. The mean, standard deviation and percent coefficient of variation was calculated for all groups, transposed and plotted. The intracellular ATP (iATP) concentration was measured after manual enumeration.
The output of the luminometer is non-standardized Relative Luminescence Units (RLU). […] This allowed the RLU values to be automatically calculated into standardized ATP (μM) units. For both the RLU and ATP values derived from each well, the luminometer software calculated the mean, standard deviation and percent coefficient of variation.

Data set [2] relates to human-derived hematopoietic cell populations. Briefly: CFC assay, multi-donor study, all seven cell populations (Example 4). Type of data set: cell-based. The following applies: highest doses (up to 1 nM); three donors. How it is done: Compound was dissolved in 1 ml of Iscove's Modified Dulbecco's Medium (IMDM) and a serial dose response was prepared in single log doses so that the final dose in culture ranged from 1 nanoMolar (nM) to 1×10^−16 M. All working dilutions were performed in IMDM. Cell cultures from each donor were started at different times and a fresh solution of Homspera® was prepared for each individual experiment.
Starting with human bone marrow aspirate, the mononuclear cell (MNC) fraction from each aspirate was separated from whole bone marrow using Ficoll-Paque density gradient centrifugation.
The colony-forming cell (CFC) assay was performed using optimal growth factor/cytokine concentrations. The reagents and conditions were similar to those used in Example 3, except that no ATP measurements were performed. The MNC fraction from each bone marrow donor was dissolved in IMDM and cultured at a concentration of 5,000 cells/well in a Culture Master Mix (HemoGenix, Inc., Colorado Springs, Colo.). […]
The mean, standard deviation and percent coefficient of variation was calculated for all groups, transposed and plotted as a function of donor. The percent from control values were calculated and also plotted as a function of donor. […]

Data set [3] deals with CFU-Mk, platelet precursors (human bone marrow mononuclear cells). Briefly: Colony forming unit (CFU) assay (Example 6). The data set is classed as cell-based. Conditions: for effect of antagonist on substance P enhanced platelet colony formation: in the presence of substance P. The source says:
(§1) As stem cells differentiate in response to growth factors, they form a colony of cells with distinct morphologies that can be visualized using a microscope. This study examined the formation of three different progenitor cell populations, erythrocytes, platelets and granulocytes/macrophages.
(§2) Bone marrow aspirates were obtained from three healthy donors between 18 and 35 years of age following appropriate guidelines and protocols. Bone marrow mononuclear cells were isolated using a Ficoll-Hypaque density gradient, separating red blood cells from the others. Cells from each donor were processed independently and used for setting up individual experiments to assess the effects, if any, of donor variability.
Cells (1×10^5) were plated in duplicate onto 35 mm tissue culture plates for each condition tested and set up as described in Rameshwar et al. 1993, Blood. 81:2, 391-398. Erythroid and granulocyte/macrophage cultures were plated using methylcellulose and megakaryocyte cultures (platelet precursors) used a collagen-based support (StemCell Technologies, Vancouver, Canada, catalogue #04973). […] CP 99,994 (Pfizer) was used as a neurokinin-1 receptor antagonist and SR 48968 (Sanofi) was used as a neurokinin-2 receptor antagonist.
Cultures were set up with limited cytokines and growth factors which would promote differentiation of one progenitor per plate.
Each compound was dissolved in endotoxin-free water to a final concentration of 0.1 mM. After reconstitution, the solutions were aliquoted into siliconized microcentrifuge tubes and exposed to nitrogen gas, eliminating oxygen in the head space of the enclosure. All aliquots were stored at −20° C. until use and used within one month of reconstitution. See, Rameshwar, et al. 1997, J. Immunol.
Cultures were incubated at 37° C. with 5% CO2 for approximately 14 days, after which colonies were manually enumerated using a microscope. […]

The test system of data set [4] is BFU-E (human bone marrow mononuclear cells). Briefly: Colony forming unit (CFU) assay (Example 6). The data set is classed as cell-based. The following applies: approximately 14 days; FIG. 1.
Excerpt: as §1, §2
(§3) Cells (1×10^5) were plated in duplicate onto 35 mm tissue culture plates for each condition tested and set up as described in Rameshwar et al. 1993, Blood. 81:2, 391-398. Erythroid and granulocyte/macrophage cultures were plated using methylcellulose and megakaryocyte cultures (platelet precursors) used a collagen-based support (StemCell Technologies, Vancouver, Canada, catalogue #04973). […] CP 99,994 (Pfizer) was used as a neurokinin-1 receptor antagonist and SR 48968 (Sanofi) was used as a neurokinin-2 receptor antagonist. […]

Data set [5] deals with CFU-E (human bone marrow mononuclear cells). Description: Colony forming unit (CFU) assay (Example 6). Conditions: approximately 14 days; FIG. 2. Type of data set: cell-based.
Excerpt: as §1, §2, §3

The subject of data set [6] is neurokinin-1 (NK1) receptor; NK2 and NK3 receptors. The following applies: Tousignant et al. 1990; cited from earlier work.

As to `CC(C)C[C@H](NC(=O)CN(C)C(=O)[C@H](Cc1ccccc1)NC(=O)[C@H](Cc1ccccc1)NC(=O)[C@H](CCC(N)=O)NC(=O)[C@H](CCC(N)=O)NC(=O)[C@@H]1CCCN1C(=O)[C@H](CCCCN)NC(=O)[C@@H]1CCCN1C(=O)[C@@H](N)CCCNC(=N)N)C(=O)N[C@@H](CCS(C)(=O)=O)C(N)=O` [Homspera®], the cytotoxicity result in data set [1] is reported as “apparent absence of distinct cytotoxicity”. In addition, in data set [2], the toxicity entry is reported as “no apparent toxicity”.
With `COc1ccccc1CN[C@H]1CCCN[C@H]1c1ccccc1` [CP-99,994], the “effect of antagonist on substance P enhanced platelet colony formation” value in data set [3] is reported as “blocks the stimulatory activity of substance P”.
For `CC(=O)NC1(c2ccccc2)CCN(CC[C@H](CN(C)C(=O)c2ccccc2)c2ccc(Cl)c(Cl)c2)CC1` [SR48968], the “effect of antagonist on substance P enhanced platelet colony formation” value in data set [3] was “no effect on substance P activity”.
RPKPQQFFGLM [substance P]: the “BFU-E colony formation, increase from control values” in data set [4] is around 60%. In addition, the “CFU-E colony formation, enhancement from control values” in data set [5] was “about 70%”. Also, in data set [3], the “effective concentration, platelet precursors (CFU-Mk)” value is reported as 10^−8 M. The neurokinin receptor specificity entry in data set [6] was “can also activate the neurokinin-2 (NK2) and neurokinin-3 (NK3) receptors”.
